# Assay results reported in patent US12319664B2, “Herbicidally active 3-phenylisoxazoline-5-carboxamides of cyclopentenylcarboxylic acid derivatives” (Bayer Aktiengesellschaft, priority 2018, dated 2025).
# Columns and labels:
# [1] = tested on: ALOMY; assay: Post-emergence herbicidal action against ALOMY; format: in vivo, Alopecurus myosuroides; conditions: application rate 80 g/ha, rated visually after about 3 weeks
# Procedure: (§1) [table] 2. Post-emergence herbicidal action against harmful plants and crop plant compatibility Seeds of monocotyledonous and dicotyledonous weeds and crop plants are placed in sandy loam in plastic or wood-fibre pots, covered with soil and cultivated in a greenhouse under controlled growth conditions. 2 to 3 weeks after sowing, the test plants are treated at the one-leaf stage. The compounds of the invention, formulated in the form of wettable powders (WP) or as emulsion concentrates (EC), are then sprayed onto the green parts of the plants as aqueous suspension or emulsion with addition of 0.5% additive at a water application rate of 600 l/ha (converted). After the test plants have been kept in the greenhouse under optimum growth conditions for about 3 weeks, the activity of the preparations is rated visually in comparison to untreated controls. For example, 100% activity=the plants have died, 0% activity=like control plants.
# [2] = tested on: AVEFA; assay: Post-emergence herbicidal action against AVEFA; format: in vivo, Avena fatua; conditions: application rate 80 g/ha, rated visually after about 3 weeks
# Procedure: as §1
# [3] = tested on: ECHCG; assay: Post-emergence herbicidal action against ECHCG; format: in vivo, Echinochloa crus-galli; conditions: application rate 80 g/ha, rated visually after about 3 weeks
# Procedure: as §1
# [4] = tested on: LOLRI; assay: Post-emergence herbicidal action against LOLRI; format: in vivo, Lolium rigidum; conditions: application rate 80 g/ha, rated visually after about 3 weeks
# Procedure: as §1
# [5] = tested on: SETVI; assay: Post-emergence herbicidal action against SETVI; format: in vivo, Setaria viridis; conditions: application rate 80 g/ha, rated visually after about 3 weeks
# Procedure: as §1
# [6] = tested on: ABUTH; assay: Post-emergence herbicidal action against ABUTH; format: in vivo, Abutilon theophrasti; conditions: application rate 80 g/ha, rated visually about 3 weeks after treatment
# Procedure: as §1
# [7] = tested on: AMARE; assay: Post-emergence herbicidal action against AMARE; format: in vivo, Amaranthus retroflexus; conditions: application rate 80 g/ha, rated visually about 3 weeks after treatment
# Procedure: as §1
# [8] = tested on: PHBPU; assay: Post-emergence herbicidal action against PHBPU; format: in vivo, Pharbitis purpurea; conditions: application rate 80 g/ha, rated visually about 3 weeks after treatment
# Procedure: as §1
# [9] = tested on: POLCO; assay: Post-emergence herbicidal action against POLCO; format: in vivo, Polygonum convolvulus; conditions: application rate 80 g/ha, rated visually about 3 weeks after treatment
# Procedure: as §1
# [10] = tested on: STEME; assay: Post-emergence herbicidal action against STEME; format: in vivo, Stellaria media; conditions: application rate 80 g/ha, rated visually about 3 weeks after treatment
# Procedure: as §1
# [11] = tested on: VERPE; assay: Post-emergence herbicidal action against VERPE; format: in vivo, Veronica persica; conditions: application rate 80 g/ha
# Procedure: as §1
# [12] = tested on: HORMU; assay: Post-emergence herbicidal action against HORMU; format: in vivo, Hordeum murinum; conditions: application rate 80 g/ha
# Procedure: as §1
Structure (SMILES),Herbicidal action against [%] ALOMY [1] [%],Herbicidal action against [%] AVEFA [2] [%],Herbicidal action against [%] ECHCG [3] [%],Herbicidal action against [%] LOLRI [4] [%],Herbicidal action against [%] SETVI [5] [%],Herbicidal action against [%] ABUTH [6] [%],Herbicidal action against [%] AMARE [7] [%],Herbicidal action against [%] PHBPU [8] [%],Herbicidal action against [%] POLCO [9] [%],Herbicidal action against [%] STEME [10] [%],Herbicidal action against [%] VERPE [11] [%],Herbicidal action against [%] HORMU [12] [%]
C=CC1(C(=O)NC2C=CC(C(=O)N3CCCO3)C2)CC(c2cc(F)cc(F)c2)=NO1 (stereo not shown) [II-28],100,80,90,90,80,90,80,90,80,90,90,80
COC(=O)[C@@H]1C=C[C@H](NC(=O)C2(C(F)(F)F)CC(c3ccccc3)=NO2)C1 (stereo partly shown) [Example I-026],100,100,80,90,90,,90,80,80,80,80,90
C=C[C@]1(C(=O)N[C@H]2C=C[C@H](C(=O)OC)C2)CC(c2cc(F)cc(F)c2)=NO1 [Example I-054],90,100,90,100,80,,80,80,80,80,90,90
COCCOC(=O)C1C=CC(NC(=O)C2(C(F)(F)F)CC(c3cccc(C#N)c3)=NO2)C1 (mixture of isomers) [Example I-086],90,90,90,90,90,90,90,80,80,80,90,100
CC1(C(=O)N[C@H]2C=C[C@@H](C(=O)OCC(F)(F)F)C2)CC(c2cc(F)cc(F)c2)=NO1 (stereo partly shown) [Example I-010],90,90,90,90,90,80,90,90,90,80,90,90
COc1cc(OC)cc(C2=NOC(C(=O)NC3C=CC(C(=O)OCCCl)C3)(C(F)(F)F)C2)c1 (mixture of isomers) [Example I-044],,80,90,,,90,80,80,,,,100
CC1(C(=O)NC2C=CC(C(=O)NC(C)(C)C(F)(F)F)C2)CC(c2cc(F)cc(F)c2)=NO1 (mixture of isomers) [II-08],80,,,,,,,90,,90,80,
O=C(OCC(F)(F)F)[C@@H]1C=C[C@H](NC(=O)C2(C(F)(F)F)CC(c3ccccc3)=NO2)C1 (stereo partly shown) [Example I-030],90,100,80,100,90,,90,80,90,,80,90
"C=CC1(C(=O)NC2C=CC(C(=O)NC(C)(C)C(F)(F)F)C2)CC(c2cc(F)cc(F)c2)=NO1 (single isomer, unassigned) [II-24]",,,,,,,,80,,,80,
CC(C)(C)OC(=O)[C@@H]1C=C[C@H](NC(=O)C2(C)CC(c3cccc(C#N)c3)=NO2)C1 (stereo partly shown) [Example I-095],90,,,,,,,90,90,,80,
O=C(OCCCl)C1C=CC(NC(=O)C2(C(F)(F)F)CC(c3cccc(Cl)c3)=NO2)C1 (mixture of isomers) [Example I-045],100,90,80,80,80,80,,80,,80,,90
C=CC1(C(=O)N[C@H]2C=C[C@H](C(=O)NC(C)(C)C#N)C2)CC(c2cc(F)cc(F)c2)=NO1 (stereo partly shown) [II-19],,,,,,,,90,,,,
C=CC1(C(=O)NC2C=CC(C(=O)NS(=O)(=O)CC(=O)OC)C2)CC(c2cc(F)cc(F)c2)=NO1 (mixture of isomers) [II-18],100,100,80,80,90,,80,80,,80,80,90
Cc1cc(C2=NOC(C(=O)NC3C=CC(C(=O)OCCCl)C3)(C(F)(F)F)C2)cc(C(F)(F)F)c1 (mixture of isomers) [Example I-049],90,90,,90,,,90,90,,,80,90
CC(C)(C)OC(=O)[C@@H]1C=C[C@H](NC(=O)C2(C)CC(c3cc(F)cc(F)c3)=NO2)C1 (stereo partly shown) [Example I-007],90,90,90,90,90,80,,90,80,90,90,90
O=C(C1C=CC(NC(=O)C2(C(F)(F)F)CC(c3cc(F)cc(F)c3)=NO2)C1)N1CCCO1 (mixture of isomers) [II-32],90,90,90,90,80,80,80,,90,90,80,90
C=CC1(C(=O)NC2CC=C(C(=O)NS(N)(=O)=O)C2)CC(c2cc(F)cc(F)c2)=NO1 (mixture of isomers) [IV-10],,90,90,90,,,80,90,,,,90
O=C(OCC(F)(F)F)C1C=CC(NC(=O)C2(C(F)(F)F)CC(c3cccc(Cl)c3)=NO2)C1 (mixture of isomers) [Example I-051],100,90,80,90,,80,,80,,90,80,90
